# Measured values taken from patent US11530244B2, “Cyclic polypeptides for PCSK9 inhibition” (priority 2018, dated 2022).
# Like-named read-outs stand apart in the source and are kept apart here. Starred links: 1 amine or outer side, 2 acyl side, 3 side chain; linkers in the order of their positions; H or OH if unused. Positions of bridges follow the written chain, without caps; N, C: chain ends. Non-standard residues stand in square brackets, D forms with d. Residues, ends and D or L forms follow the SMILES beside them. *: point of attachment. X61 = O=C(CCCCC(=O)[*:1])NCc1ccc(CC(=O)[*:2])cc1; Ala(imidazol-2-yl) = N[C@@H](Cc1ncc[nH]1)C(=O)O; Trp(5-OH) = N[C@@H](Cc1c[nH]c2ccc(O)cc12)C(=O)O; Phe(4-COOH) = N[C@@H](Cc1ccc(C(=O)O)cc1)C(=O)O; Trp(5-F) = N[C@@H](Cc1c[nH]c2ccc(F)cc12)C(=O)O; Trp(6-F) = N[C@@H](Cc1c[nH]c2cc(F)ccc12)C(=O)O; X55 = O=C(CCCCCC(=O)[*:1])NCc1ccc(CCN[*:2])cc1; Acetyl(2-(4-imidazolyl)) = O=C(Cc1c[nH]cn1)*; X3 = O=C(CCSCc1cc(F)cc(CSCCN[*:1])c1)[*:2]; X33 = CC(C)C(N[*:1])c1ncc(C(=O)[*:2])[nH]1; Lys(Me3) = C[N+](C)(C)CCCC[C@H](N)C(=O)O; Pro(cis-4-F) = O=C(O)[C@@H]1C[C@H](F)CN1; Nle(6-COOH) = N[C@@H](CCCCC(=O)O)C(=O)O; X4 = O=C(CCSCc1cccc(CSCCN[*:1])c1)[*:2]; mXylylene = c1cc(C[*:1])cc(C[*:2])c1; AEF = NCCOc1ccc(C[C@H](N)C(=O)O)cc1; Adipoyl = O=C(CCCCC(=O)[*:2])[*:1]; Glutaryl = O=C(CCCC(=O)[*:2])[*:1]; Lys(Me2) = CN(C)CCCC[C@H](N)C(=O)O; X6 = O=C(Cc1ccc(CN[*:2])cc1)[*:1]; Aad = N[C@@H](CCCC(=O)O)C(=O)O; αMeP = C[C@@]1(C(=O)O)CCCN1; 3Amb = NCc1cccc(C(=O)O)c1; Dap = NC[C@H](N)C(=O)O; X2 = O=C(C[*:2])[*:1]; Ahx = NCCCCCC(=O)O; AEA = NCCOCC(=O)O; X62 = O=C(C(F)F)*; Mpa = O=C(O)CCS
# Biological target: PCSK9 (Homo sapiens (Human), UniProt Q8NBP7)
# Experiment: PCSK9 Alexa FRET Standard assay (displacement of AlexaFluor647 tagged cyclic peptide Reagent A)
# Format: binding
# Conditions: 0.5 nM PCSK9, 20 nM AF cyclic peptide Reagent A
# Method: A solution containing 1 nM biotinylated PCSK9+2.5 nM Lance Streptavidin Europium (Strep-Eu) was made in 50 mM HEPES pH 7.4, 0.15 M NaCl, 5 mM CaCl2), 0.01% BSA, and 0.01% Surfactant P20. A separate solution containing 40 nM of the AlexaFluor tagged cyclic peptide was made in the same buffer system. An Echo was used to transfer 0.750 ul of compound to an assay plate followed by the addition of 15 ul of PCSK9+Stept-Eu and 15 ul of AF peptide. The final assay volume was 30.750 ul containing 0.5 nM PCSK9, 1.25 nM Strep-Eu, and 20 nM AF cyclic peptide. The reaction was incubated at room temperature for at least two hours prior to fluorescence measurements using an Envision Multilabel Reader. IC50 values were determined by fitting data to a sigmoidal dose-response curve using nonlinear regression. Ki was then calculated from the IC50 and the KD of AF cyclic peptide. Counts (B-counts) of the europium-labeled PCSK9 were followed to observe if compounds were […]. A fall off of the B-counts likely indicated a false positive of inhibition. Data from this procedure was reported as “A=‘numerical value’ (nanomolar)”
# [1] = PCSK9 Alexa FRET Standard assay, read-out: IC50
# [2] = IC50, PCSK9 Alexa FRET Standard assay
# Sequence of PCSK9 (Q8NBP7 153-692): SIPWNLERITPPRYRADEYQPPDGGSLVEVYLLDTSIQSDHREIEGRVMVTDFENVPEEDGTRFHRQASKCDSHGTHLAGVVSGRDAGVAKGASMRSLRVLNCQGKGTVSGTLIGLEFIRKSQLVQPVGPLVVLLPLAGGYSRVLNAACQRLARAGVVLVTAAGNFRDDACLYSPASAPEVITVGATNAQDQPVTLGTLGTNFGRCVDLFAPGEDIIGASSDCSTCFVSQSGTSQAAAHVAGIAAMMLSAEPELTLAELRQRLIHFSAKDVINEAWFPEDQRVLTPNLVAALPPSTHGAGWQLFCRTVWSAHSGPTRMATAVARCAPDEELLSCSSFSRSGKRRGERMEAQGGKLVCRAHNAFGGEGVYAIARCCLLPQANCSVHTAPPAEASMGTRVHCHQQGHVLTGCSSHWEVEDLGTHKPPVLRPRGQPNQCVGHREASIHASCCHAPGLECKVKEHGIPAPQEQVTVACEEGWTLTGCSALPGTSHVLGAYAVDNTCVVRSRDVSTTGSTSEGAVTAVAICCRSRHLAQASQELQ
SMILES,IC50 [1] [nM],IC50 [2] [nM]
CC[C@H](C)[C@@H]1NC(=O)[C@@H]2CCCN2C(=O)[C@H](Cc2c[nH]c3ccc(F)cc23)NC(=O)[C@H](Cc2c[nH]c3ccc(F)cc23)NC(=O)CNC(=O)[C@H](CCCCN)NC(=O)CCSCc2cccc(c2)CSC[C@@H](C(N)=O)NC(=O)[C@]2(C)CCCN2C(=O)[C@H](Cc2ccc(O)cc2)NC1=O [Compound 006] ([Mpa]KG[Trp(5-F)][Trp(5-F)]PIY[αMeP]C-NH2; linker 1-10 via mXylylene),21000 to 50000,
COc1ccc(C[C@@H]2NC(=O)[C@H](Cc3cnc[nH]3)NC(=O)[C@H](CC(=O)O)NC(=O)[C@H](Cc3c[nH]c4ccc(F)cc34)NC(=O)[C@H](Cc3c[nH]c4ccc(F)cc34)NC(=O)[C@@H](C)NC(=O)[C@H](CCCC(=O)O)NC(=O)CCSCc3cccc(c3)CSCCNC(=O)[C@]3(C)CCCN3C2=O)cc1 [Compound 427] (cyclo([Aad][dA][Trp(5-F)][Trp(5-F)]DHY(Me)[αMeP][X4])),21000 to 50000,
COc1ccc(C[C@@H]2NC(=O)[C@H](Cc3cnc[nH]3)NC(=O)[C@H](CC(=O)O)NC(=O)[C@H](Cc3c[nH]c4ccc(F)cc34)NC(=O)[C@H](Cc3c[nH]c4ccc(F)cc34)NC(=O)[C@@H](C)NC(=O)[C@H](CCCCC(=O)O)NC(=O)CCSCc3cccc(c3)CSCCNC(=O)[C@]3(C)CCCN3C2=O)cc1 [Compound 425] (cyclo(DHY(Me)[αMeP][X4][Nle(6-COOH)][dA][Trp(5-F)][Trp(5-F)])),0.11 to 100,
COc1ccc(C[C@@H]2NC(=O)[C@H](Cc3cnc[nH]3)NC(=O)[C@H](CC(=O)O)NC(=O)[C@H](Cc3c[nH]c4ccc(F)cc34)NC(=O)[C@H](Cc3c[nH]c4ccc(F)cc34)NC(=O)[C@H](C)NC(=O)CCCCCC(=O)NCc3ccc(cc3)CCNC(=O)[C@]3(C)CCCN3C2=O)cc1 [Compound 470] (A[Trp(5-F)][Trp(5-F)]DHY(Me)[αMeP]; linker N-C via X55),0.11 to 100,
COc1ccc(C[C@@H]2NC(=O)[C@H](Cc3cnc[nH]3)NC(=O)[C@H](CC(=O)O)NC(=O)[C@H](Cc3c[nH]c4ccc(F)cc34)NC(=O)[C@H](Cc3c[nH]c4ccc(F)cc34)NC(=O)[C@@H](C)NC(=O)[C@H](NC(C)=O)CCCCNC(=O)Cc3ccc(cc3)CNC(=O)CCC[C@@H](C(N)=O)NC(=O)[C@]3(C)CCCN3C2=O)cc1 [Compound 433] (Ac-[dK][dA][Trp(5-F)][Trp(5-F)]DHY(Me)[αMeP][Aad]-NH2; linker 1-9 via X6),100 to 1000,
COc1ccc(C[C@@H]2NC(=O)[C@H](Cc3cnc[nH]3)NC(=O)[C@H](CC(=O)O)NC(=O)[C@H](Cc3c[nH]c4ccc(F)cc34)NC(=O)[C@H](Cc3c[nH]c4ccc(F)cc34)NC(=O)[C@@H](C)NC(=O)[C@H](CNC(=O)COCCN)NC(=O)CCSCc3cccc(c3)CSCCNC(=O)[C@]3(C)CCCN3C2=O)cc1 [Compound 424] (cyclo(DHY(Me)[αMeP][X4][Dap](AEA)[dA][Trp(5-F)][Trp(5-F)])),0.11 to 100,
COc1ccc(C[C@@H]2NC(=O)[C@H]([C@@H](C)O)NC(=O)[C@@H]3C[C@H](F)CN3C(=O)[C@H](Cc3c[nH]c4ccc(F)cc34)NC(=O)[C@H](Cc3c[nH]c4ccc(F)cc34)NC(=O)[C@@H](C)NC(=O)CCCC(=O)NCCOc3ccc(cc3)C[C@@H](C(N)=O)NC(=O)[C@]3(C)CCCN3C2=O)cc1 [Compound 081] ([dA][Trp(5-F)][Trp(5-F)][Pro(cis-4-F)]TY(Me)[αMeP][AEF]-NH2; linker N-8 via Glutaryl),100 to 1000,
COc1ccc(C[C@@H]2NC(=O)[C@H]([C@@H](C)O)NC(=O)[C@@H]3C[C@H](F)CN3C(=O)[C@H](Cc3c[nH]c4ccc(F)cc34)NC(=O)[C@H](Cc3c[nH]c4ccc(F)cc34)NC(=O)[C@@H](C)NC(=O)[C@H](CCCCN)NC(=O)[C@@H](NC(=O)C(F)F)CC(=O)NCCOc3ccc(cc3)C[C@@H](C(N)=O)NC(=O)[C@]3(C)CCCN3C2=O)cc1 [Compound 113] (X62-DK[dA][Trp(5-F)][Trp(5-F)][Pro(cis-4-F)]TY(Me)[αMeP][AEF]-NH2; lactam 1-10),,21000 to 50000
CC(=O)N[C@H]1CNC(=O)COc2ccc(cc2)C[C@@H](C(N)=O)NC(=O)[C@]2(C)CCCN2C(=O)[C@H](Cc2ccc(O)cc2)NC(=O)[C@H](Cc2cnc[nH]2)NC(=O)[C@H](CC(=O)O)NC(=O)[C@H](Cc2c[nH]c3ccc(F)cc23)NC(=O)[C@H](Cc2c[nH]c3ccc(F)cc23)NC(=O)CNC(=O)[C@H](C)NC1=O [Compound 351] (Ac-[Dap]AG[Trp(5-F)][Trp(5-F)]DHY[αMeP]Y-NH2; linker 1-10 via X2),21000 to 50000,
COc1ccc(C[C@@H]2NC(=O)[C@H](Cc3ncc[nH]3)NC(=O)[C@H](CC(=O)O)NC(=O)[C@H](Cc3c[nH]c4ccc(F)cc34)NC(=O)[C@H](Cc3c[nH]c4ccc(F)cc34)NC(=O)[C@@H](C)NC(=O)[C@H](CCCC[N+](C)(C)C)NC(=O)CCSCc3cc(F)cc(c3)CSCCNC(=O)[C@]3(C)CCCN3C2=O)cc1 [Compound 462] (cyclo(D[Ala(imidazol-2-yl)]Y(Me)[αMeP][X3][Lys(Me3)][dA][Trp(5-F)][Trp(5-F)])),1000 to 12100,
COc1ccc(C[C@@H]2NC(=O)[C@H](Cc3cnc[nH]3)NC(=O)[C@H](CC(=O)O)NC(=O)[C@H](Cc3c[nH]c4cc(F)ccc34)NC(=O)[C@H](Cc3c[nH]c4ccc(F)cc34)NC(=O)[C@@H](C)NC(=O)CCCCCNC(=O)c3ccc(cc3)C[C@@H](C(N)=O)NC(=O)[C@]3(C)CCCN3C2=O)cc1 [Compound 350] ([Ahx][dA][Trp(5-F)][Trp(6-F)]DHY(Me)[αMeP][Phe(4-COOH)]-NH2; lactam N-9),21000 to 50000,
C[C@@]12CCCN1C(=O)[C@H](Cc1ccc(O)cc1)NC(=O)[C@H](Cc1cnc[nH]1)NC(=O)[C@H](CC(=O)O)NC(=O)[C@H](Cc1c[nH]c3ccc(F)cc13)NC(=O)[C@H](Cc1c[nH]c3ccc(O)cc13)NC(=O)CNC(=O)[C@H](CCCCN)NC(=O)CCSCc1cccc(c1)CSC[C@@H](C(N)=O)NC2=O [Compound 414] ([Mpa]KG[Trp(5-OH)][Trp(5-F)]DHY[αMeP]C-NH2; linker 1-10 via mXylylene),100 to 1000,
CC(C)C1NC(=O)CCSCc2cccc(c2)CSC[C@@H](C(N)=O)NC(=O)[C@]2(C)CCCN2C(=O)[C@H](Cc2ccc(O)cc2)NC(=O)[C@H](Cc2c[nH]cn2)NC(=O)[C@H](CC(=O)O)NC(=O)[C@H](Cc2c[nH]c3ccc(F)cc23)NC(=O)[C@H](Cc2c[nH]c3ccc(F)cc23)NC(=O)c2cnc1[nH]2 (stereo partly shown) [Compound 449] ([Mpa][X33][Trp(5-F)][Trp(5-F)]DHY[αMeP]C-NH2; linker 1-9 via mXylylene),100 to 1000,
COc1ccc(C[C@@H]2NC(=O)[C@H]([C@H](C)O)NC(=O)[C@@H]3CCCc4cn(nn4)CCCC[C@H](NC(=O)[C@@H](C)NC(=O)[C@H](CCCCN)NC(=O)CCSCc4cccc(c4)CSCCNC(=O)[C@]4(C)CCCN4C2=O)C(=O)N[C@@H](Cc2c[nH]c4ccc(F)cc24)C(=O)N3)cc1 [Compound 526],0.11 to 100,
COc1ccc(C[C@@H]2NC(=O)[C@H]([C@@H](C)O)NC(=O)[C@@H]3C[C@H](F)CN3C(=O)[C@H](Cc3c[nH]c4ccc(F)cc34)NC(=O)[C@H](Cc3c[nH]c4ccc(F)cc34)NC(=O)[C@@H](C)NC(=O)[C@H](CCCCN)NC(=O)[C@@H](NC(=O)Cc3cnc[nH]3)CC(=O)NCCOc3ccc(cc3)C[C@@H](C(N)=O)NC(=O)[C@]3(C)CCCN3C2=O)cc1 [Compound 105] ({Acetyl(2-(4-imidazolyl))}-DK[dA][Trp(5-F)][Trp(5-F)][Pro(cis-4-F)]TY(Me)[αMeP][AEF]-NH2; lactam 1-10),,1000 to 12100
COc1ccc(C[C@@H]2NC(=O)[C@H](Cc3cnc[nH]3)NC(=O)[C@H](CC(=O)O)NC(=O)[C@H](Cc3c[nH]c4ccc(F)cc34)NC(=O)[C@H](Cc3c[nH]c4ccc(F)cc34)NC(=O)[C@@H](C)NC(=O)CCCCC(=O)NCCOc3ccc(cc3)C[C@@H](C(N)=O)NC(=O)[C@]3(C)CCCN3C2=O)cc1 [Compound 410] ([dA][Trp(5-F)][Trp(5-F)]DHY(Me)[αMeP][AEF]-NH2; linker N-8 via Adipoyl),1000 to 12100,
COc1ccc(C[C@@H]2NC(=O)[C@H](Cc3cnc[nH]3)NC(=O)[C@H](CC(=O)O)NC(=O)[C@H](Cc3c[nH]c4ccc(F)cc34)NC(=O)[C@H](Cc3c[nH]c4ccc(F)cc34)NC(=O)[C@@H](C)NC(=O)CCCCC(=O)NCc3ccc(cc3)CC(=O)NC[C@@H](C(N)=O)NC(=O)[C@]3(C)CCCN3C2=O)cc1 [Compound 412] ([dA][Trp(5-F)][Trp(5-F)]DHY(Me)[αMeP][Dap]-NH2; linker N-8 via X61),1000 to 12100,
COc1ccc(C[C@@H]2NC(=O)[C@H](Cc3ncc[nH]3)NC(=O)[C@H](CC(=O)O)NC(=O)[C@H](Cc3c[nH]c4ccc(F)cc34)NC(=O)[C@H](Cc3c[nH]c4ccc(F)cc34)NC(=O)[C@@H](C)NC(=O)[C@H](CCCCN(C)C)NC(=O)CCSCc3cccc(c3)CSCCNC(=O)[C@]3(C)CCCN3C2=O)cc1 [Compound 463] (cyclo(D[Ala(imidazol-2-yl)]Y(Me)[αMeP][X4][Lys(Me2)][dA][Trp(5-F)][Trp(5-F)])),100 to 1000,
C[C@@]12CCCN1C(=O)[C@H](Cc1ccc(O)cc1)NC(=O)c1cccc(c1)CNC(=O)[C@H](Cc1c[nH]c3ccc(F)cc13)NC(=O)[C@H](Cc1c[nH]c3ccc(F)cc13)NC(=O)CNC(=O)[C@H](CCCCN)NC(=O)CCSCc1cccc(c1)CSC[C@@H](C(N)=O)NC2=O [Compound 088] ([Mpa]KG[Trp(5-F)][Trp(5-F)][3Amb]Y[αMeP]C-NH2; linker 1-9 via mXylylene),100 to 1000,
